Consider one compound from US20120135081A1, “HYDROPHOBINS FOR DISPERSING ACTIVE AGENTS” (TEKNOLOGIAN TUTKIMUSKESKUS VTT, priority 2009, published 2012).

The data set is described as follows: Particle size and morphology by transmission electron microscopy (TEM). It is filed as physicochemical. The method, then:
Precipitation of beclomethasone was carried out by modifying a method published earlier, where the drug was crystallised either in pure water or in the presence of a surfactant, Tween-80 (Wang et al. 2007^xi, Matteucci et al., 2006^xii). 34.8 mM beclomethasone dipropionate (BDB, MW 521.1) solution was prepared by dissolving the BDP in methanol. 0.5 ml of BDP solution was poured into 20 ml of pure deionized water with 0-0.15 wt-% (0-208.3 μM) HFBII. The resulting aqueous solution had 0.05 wt-% BDP. Both solutions were filtered with 0.2 μm syringe filter to remove possible impurities prior to use. The receiving liquid was stirred vigorously with a magnetic stirrer and temperature of the solution was controlled by keeping the sample in an ice bath or in room temperature during the precipitation. The precipitate was observed as a turbid solution immediately after BDP addition.
Transmission electron microscopy (TEM): 20 min after precipitation 20 μl of the nanoparticle dispersions were dried on formvar film-coated copper grids with mesh size 300.
The synthesis was done as in the earlier section, except that the drug used was itraconazole. Mass ratios of 2:1, 1:1 and 1:2 of HFBII:itraconazole were tested. TEM was used to study the size and morphology of the particles. […] Monodispersity increased with increasing HFBII amount. […]

For the compound `CCC(=O)OCC(=O)[C@@]1(OC(=O)CC)[C@@H](C)C[C@H]2[C@@H]3CCC4=CC(=O)C=C[C@]4(C)[C@@]3(Cl)[C@@H](O)C[C@@]21C` [BDP, beclomethasone dipropionate], the “crystals formed (size and habit)” value (precipitated from methanol into water without HFBII) is reported as “a few micrometer long needles”. Also, the particle size result (precipitated with HFBII at room temperature, TEM) was “several micrometers”.
